In patent publication US12678446B2 (PFIZER INC., priority 2020, dated 2026):

Legend:
[1] = tested on: RSV (RSV A2 ECACC, 0709161v); assay: RSV plaque reduction assay; format: cell-based, respiratory syncytial virus; settings: human respiratory syncytial virus, HepG2, read-out: RSV A2 Plaque EC50, RSV A2 in Hep-G2 cells; mean of at least two experiments unless noted (n = 1)
Experimental: Compounds w ere subjected to RSV plaque reduction assays according to the following protocol.
Hep-G2 cells (ECACC, 85011430) were passaged in flasks and seeded in 24-well plates in DMEM containing antibiotics and supplemented with 10% FBS. During inoculation and subsequent incubation, cells were cultured in DMEM containing 2% FBS. 100 plaque forming unit/well of RSV (RSV A2 ECACC, 0709161v) was mixed with eight serial dilutions of compound. Subsequently, 100 μL of the virus/compound mixtures was added to confluent Hep-G2 cell monolayers. The cells and virus/compound mixtures were incubated at 37° C. in a humidified 5% CO2 incubator for 2 h prior to removal of the inoculum and addition of 1 mL of overlay (DMEM containing 2% FBS and 0.8% CMC) containing compound dilutions. The cells and were incubated at 37° C. in a humidified 5% CO2 incubator for 2 days.
Cells were washed with PBS before adding 75/25% v/v EtOH MeOH, for 3 min. Fixative was removed and plates were washed with PBS. A pre-titrated amount of the primary antibody was added in 200 μL PBS/2% milk powder, and plates incubated for 90 min at 37° C. The plates were washed 3 times with PBS/0.05% Tween20 before addition of rabbit anti-goat horse radish peroxidase in 200 μL PBS/2% milk powder, and incubated for 1 h at 37° C. Following three wash steps with PBS/0.05% Tween20, 200 μL ready-to-use TrueBlue was added and plates were incubated at rt for 10-15 min before washing with water. After removal of water, plates were air-dried in the dark.
Plates were scanned and analysed using the Immunospot S6 Macro analyser, which is equipped with BioSpot analysis software for counting immunostained plaques (virospots). Plaque counts were used to calculate % infection relative to the mean of the plaque count in the virus control wells for RSV. […] Unless otherwise noted, plaque EC50 and cell toxicity CC50 values are a mean of at least two experiments and figures are rounded to whole units.

cell toxicity CC50 = format: cell-based; settings: human; Hep-G2 cells; mean of at least two experiments; read-out: Cell Cytotoxicity CC50

Question: What does the source list for `CC1(C)CCn2nc(-c3ccccc3F)c(C(=O)N[C@H]3N=C(c4ccccc4)c4cccc(F)c4NC3=O)c2O1` [Example 5, N-[(3S)-9-fluoro-2-oxo-5-phenyl-2,3-dihydro-1H-1,4-benzodiazepin-3-yl]-2-(2-fluorophenyl)-5,5-dim ethyl-5H,6H,7H-pyrazolo[3,2-b][1,3]oxazine-3 carboxamide]?
Answer: EC50 [1]: 54 nM; CC50 (cell toxicity CC50): > 25000 nM

Question: Which results are given for `Cc1ccccc1-c1nn2c(c1C(=O)N[C@H]1N=C(c3ccccc3)c3cccc(F)c3NC1=O)OCCC2` [Example 6, N-[(3S)-9-Fluoro-2-oxo-5-phenyl-1,3-dihydro-1,4-benzodiazepin-3-yl]-2-(2-methylphenyl)-6,7-dihydro-5H-pyrazolo[5,1-b][1,3]oxazine-3-carboxamide]?
Answer: EC50 [1]: 165 nM; CC50 (cell toxicity CC50): > 25000 nM

Question: Which EC50 [1] does the source give for `O=C(N[C@H]1N=C(c2ccccc2)c2cccc(F)c2NC1=O)c1c(-c2ccccc2F)nn2c1OC1(CC2)CC1` [Example 7, N-[(3S)-9-fluoro-2-oxo-5-phenyl-1,3-dihydro-1,4-benzodiazepin-3-yl]-2-(2-fluorophenyl)spiro[6,7-dihydropyrazolo[5,1-b][1,3]oxazine-5,1′-cyclopropane]-3-carboxamide] here?
Answer: 32 nM

Question: And the CC50 (cell toxicity CC50)?
Answer: > 25000 nM

Question: What does the source list for `CC(C)C1CCn2nc(-c3ccccc3F)c(C(=O)N[C@H]3N=C(c4ccccc4)c4cccc(F)c4NC3=O)c2O1` (stereo partly drawn) [Example 8, N-[(3S)-9-fluoro-2-oxo-5-phenyl-2,3-dihydro-1H-1,4-benzodiazepin-3-yl]-2-(2-fluorophenyl)-5-(propan-2-yl)-5H,6H,7H-pyrazolo[3,2-b][1,3]oxazine-3-carboxamide]?
Answer: EC50 [1]: 37 nM; CC50 (cell toxicity CC50): > 25000 nM

Question: For `C[C@@H]1COc2c(C(=O)N[C@H]3N=C(c4ccccc4)c4cccc(F)c4NC3=O)c(-c3ccccc3F)nn2C1` [Example 9, (6S)-N-[(3S)-9-fluoro-2-oxo-5-phenyl-1,3-dihydro-1,4-benzodiazepin-3-yl]-2-(2-fluorophenyl)-6-methyl-6,7-dihydro-5H-pyrazolo[5,1-b][1,3]oxazine-3-carboxamide], which EC50 [1] is on record?
Answer: 30 nM

Question: What about the CC50 (cell toxicity CC50) of the same compound?
Answer: > 18800 nM

Question: Which results are given for `C[C@H]1COc2c(C(=O)N[C@H]3N=C(c4ccccc4)c4cccc(F)c4NC3=O)c(-c3ccccc3F)nn2C1` [Example 10, (6R)-N-[(3S)-9-fluoro-2-oxo-5-phenyl-1,3-dihydro-1,4-benzodiazepin-3-yl]-2-(2-fluorophenyl)-6-methyl-6,7-dihydro-5H-pyrazolo[5,1-b][1,3]oxazine-3-carboxamide]?
Answer: EC50 [1]: 23 nM; CC50 (cell toxicity CC50): > 25000 nM

Question: Which results are given for `CCC1COc2c(C(=O)N[C@H]3N=C(c4ccccc4)c4cccc(F)c4NC3=O)c(-c3ccccc3F)nn2C1` (stereo partly drawn) [Example 11, 6-Ethyl-N-[(3S)-9-fluoro-2-oxo-5-phenyl-2,3-dihydro-1H-1,4-benzodiazepin-3-yl]-2-(2-fluorophenyl)-5H,6H,7H-pyrazolo[3,2-b][1,3]oxazine-3-carboxamide]?
Answer: EC50 [1]: 33 nM; CC50 (cell toxicity CC50): > 25000 nM

Question: Which EC50 [1] does the source give for `CC(C)C1COc2c(C(=O)N[C@H]3N=C(c4ccccc4)c4cccc(F)c4NC3=O)c(-c3ccccc3F)nn2C1` (stereo partly drawn) [Example 12, N-[(3S)-9-Fluoro-2-oxo-5-phenyl-2,3-dihydro-1H-1,4-benzodiazepin-3-yl]-2-(2-flurophenyl)-6-(propan-2-yl)-5H,6H,7H-pyrazolo[3,2-b][1,3]oxazine-3-carboxamide] here?
Answer: 39 nM

Question: What about the CC50 (cell toxicity CC50) of the same compound?
Answer: > 25000 nM

Question: With `O=C(N[C@H]1N=C(c2ccccc2)c2cccc(F)c2NC1=O)c1c(-c2ccccc2F)nn2c1OCC1(CC1)C2` [Example 13] as the compound, how does the EC50 [1] read?
Answer: 28 nM

Question: And the CC50 (cell toxicity CC50)?
Answer: > 24000 nM

Question: With `CCCC1COc2c(C(=O)N[C@H]3N=C(c4ccccc4)c4cccc(F)c4NC3=O)c(-c3ccccc3F)nn2C1` (stereo partly drawn) [Example 14, N-[(3S)-9-fluoro-2-oxo-5-phenyl-2,3-dihydro-1H-1,4-benzodiazepin-3-yl]-2-(2-fluorophenyl)-6-propyl-5H,6H,7H-pyrazolo[3,2-b][1,3]oxazine-3-carboxamide] as the compound, how does the EC50 [1] read?
Answer: 36 nM

Question: And the CC50 (cell toxicity CC50)?
Answer: > 25000 nM

Question: Which results are given for `O=C(N[C@H]1N=C(c2ccccc2)c2cccc(F)c2NC1=O)c1c(-c2ccc(NC3CC3)nc2)nn2c1OCCC2` [Example 15, 2-[6-(Cyclopropylamino)pyridin-3-yl]-N-[(3S)-9-fluoro-2-oxo-5-phenyl-1,3-dihydro-1,4-benzodiazepin-3-yl]-6,7-dihydro-5H-pyrazolo[5,1-b][1,3]oxazine-3-carboxamide]?
Answer: EC50 [1]: 30 nM; CC50 (cell toxicity CC50): > 25000 nM

Question: Which EC50 [1] does the source give for `O=C(N[C@H]1N=C(c2ccccc2)c2ccccc2NC1=O)c1c(-c2cccnc2)nn2c1OCCC2` [Example 16, N-[(3S)-2-Oxo-5-phenyl-1,3-dihydro-1,4-benzodiazepin-3-yl]-2-pyridin-3-yl-6,7-dihydro-H-pyrazolo[5,1-b][1,3]oxazine-3-carboxamide] here?
Answer: 454 nM

Question: And the CC50 (cell toxicity CC50)?
Answer: > 25000 nM

Question: With `O=C(N[C@H]1N=C(c2ccccc2)c2cccc(F)c2NC1=O)c1c(-c2cccnc2)nn2c1OCCC2` [Example 17, N-[(3S)-9-Fluoro-2-oxo-5-phenyl-1,3-dihydro-1,4-benzodiazepin-3-yl]-2-pyridin-3-yl-6,7-dihydro-5H-pyrazolo[5,1-b][1,3]oxazine-3-carboxamide] as the compound, how does the EC50 [1] read?
Answer: 180 nM

Question: What about the CC50 (cell toxicity CC50) of the same compound?
Answer: > 25000 nM

Question: Which EC50 [1] does the source give for `O=C(N[C@H]1N=C(c2ccccc2)c2cccc(F)c2NC1=O)c1c(-c2ccc(C3CC3)nc2)nn2c1OCCC2` [Example 18, 2-(6-Cyclopropylpyridin-3-yl)-N-[(3S)-9-fluoro-2-oxo-5-phenyl-1,3-dihydro-1,4-benzodiazepin-3-yl]-6,7-dihydro-5H-pyrazolo[5,1-b][1,3]oxazine-3-carboxamide] here?
Answer: 96 nM

Question: What about the CC50 (cell toxicity CC50) of the same compound?
Answer: > 25000 nM

Question: For `CC(C)Nc1ccc(-c2nn3c(c2C(=O)N[C@H]2N=C(c4ccccc4)c4cccc(F)c4NC2=O)OCCC3)cn1` [Example 19, N-[(3S)-9-fluoro-2-oxo-5-phenyl-1,3-dihydro-1,4-benzodiazepin-3-yl]-2-[6-(propan-2-ylamino)pyridin-3-yl]-6,7-dihydro-5H-pyrazolo[5,1-b][1,3]oxazine-3-carboxamide], which EC50 [1] is on record?
Answer: 31 nM

Question: What about the CC50 (cell toxicity CC50) of the same compound?
Answer: > 25000 nM

Question: Which EC50 [1] does the source give for `CCNc1ccc(-c2nn3c(c2C(=O)N[C@H]2N=C(c4ccccc4)c4cccc(F)c4NC2=O)OCCC3)cn1` [Example 20, 2-[6-(Ethylamino)pyridin-3-yl]-N-[(3S)-9-fluoro-2-oxo-5-phenyl-1,3-dihydro-1,4-benzodiazepin-3-yl]-6,7-dihydro-5H-pyrazolo[5,1-b][1,3]oxazine-3-carboxamide] here?
Answer: 42 nM

Question: What about the CC50 (cell toxicity CC50) of the same compound?
Answer: > 25000 nM

Question: Which results are given for `O=C(N[C@H]1N=C(c2ccccc2)c2cccc(F)c2NC1=O)c1c(-c2ccccc2F)nn2c1OCCC2` [Example 21, N-[(3S)-9-fluoro-2-oxo-5-phenyl-1,3-dihydro-1,4-benzodiazepin-3-yl]-2-(2-fluorophenyl)-6,7-dihydro-5H-pyrazolo[5,1-b][1,3]oxazine-3-carboxamide]?
Answer: EC50 [1]: 64 nM; CC50 (cell toxicity CC50): > 25000 nM

Question: Which EC50 [1] does the source give for `O=C(N[C@H]1N=C(c2ccccc2)c2ccccc2NC1=O)c1c(-c2ccccc2)nn2c1OCCC2` [Example 22, N-[(3S)-2-oxo-5-phenyl-1,3-dihydro-1,4-benzodiazepin-3-yl]-2-phenyl-6,7-dihydro-5H-pyrazolo[5,1-b][1,3]oxazine-3-carboxamide] here?
Answer: 140 nM

Question: What about the CC50 (cell toxicity CC50) of the same compound?
Answer: > 25000 nM

Question: What does the source list for `O=C(N[C@H]1N=C(c2ccccc2)c2cccc(F)c2NC1=O)c1c(-c2ccccc2)nn2c1OCCC2` [Example 23, N-[(3S)-9-fluoro-2-oxo-5-phenyl-1,3-dihydro-1,4-benzodiazepin-3-yl]-2-phenyl-6,7-dihydro-5H-pyrazolo[5,1-b][1,3]oxazine-3-carboxamide]?
Answer: EC50 [1]: 60 nM; CC50 (cell toxicity CC50): > 25000 nM

Question: What does the source list for `C[C@@H]1CCn2nc(-c3ccccc3F)c(C(=O)N[C@H]3N=C(c4ccccc4)c4ccccc4NC3=O)c2O1` [Example 24, (5R)-2-(2-Fluorophenyl)-5-methyl-N-[(3S)-2-oxo-5-phenyl-1,3-dihydro-1,4-benzodiazepin-3-yl]-6,7-dihydro-5H-pyrazolo[5,1-b][1,3]oxazine-3-carboxamide]?
Answer: EC50 [1]: 77 nM; CC50 (cell toxicity CC50): > 25000 nM

Question: For `C[C@H]1CCn2nc(-c3ccccc3F)c(C(=O)N[C@H]3N=C(c4ccccc4)c4ccccc4NC3=O)c2O1` [Example 26, (5S)-2-(2-Fluorophenyl)-5-methyl-N-[(3S)-2-oxo-5-phenyl-1,3-dihydro-1,4-benzodiazepin-3-yl]-6,7-dihydro-5H-pyrazolo[5,1-b][1,3]oxazine-3-carboxamide], which EC50 [1] is on record?
Answer: 43 nM

Question: And the CC50 (cell toxicity CC50)?
Answer: > 25000 nM

Question: For `O=C(N[C@H]1N=C(c2ccccc2)c2ccccc2NC1=O)c1c(-c2ccccc2)nn2c1OCC1(COC1)C2` [Example 28, N-[(3S)-2-oxo-5-phenyl-1,3-dihydro-1,4-benzodiazepin-3-yl]-2-phenylspiro[5,7-dihydropyrazolo[5,1-b][1,3]oxazine-6,3′-oxetane]-3-carboxamide], which EC50 [1] is on record?
Answer: 76 nM

Question: And the CC50 (cell toxicity CC50)?
Answer: > 25000 nM

Question: Which EC50 [1] does the source give for `O=C(N[C@H]1N=C(c2ccccc2)c2ccccc2NC1=O)c1c(-c2ccccc2F)nn2c1OCC1(COC1)C2` [Example 29] here?
Answer: 78 nM

Question: What about the CC50 (cell toxicity CC50) of the same compound?
Answer: > 25000 nM
